# Laboratory results published in ChEMBL document CHEMBL1201862, “PubChem BioAssay data set” (2004).
#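 Tested at 5 concentrations; 48 h exposure; 96-well plates; endpoints linearly interpolated, else capped at highest concentration. GI50 = concentration required for 50% inhibition of growth.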 Activity calls are given as the source filed them. Rule as the data show it: active = GI50 up to about 1.1 µM and inactive = higher.
# Key:
# Assay in all cases: NCI anticancer screen, dose series, 48 h
# RPMI-8226 = system: RPMI-8226
# SF-539 = system: SF-539
# UO-31 = system: UO-31
# OVCAR-4 = system: OVCAR-4
# NCI-H226 = system: NCI-H226
# M14 = system: M14
# COLO 205 = system: COLO 205
# SF-295 = system: SF-295
# HCT-15 = system: HCT-15
# IGROV-1 = system: IGROV-1
# HCC 2998 = system: HCC 2998
# ACHN = system: ACHN
# NCI-H460 = system: NCI-H460
# UACC-257 = system: UACC-257
# U-251 = system: U-251
# CCRF-CEM = system: CCRF-CEM
# 786-0 = system: 786-0
# KM12 = system: KM12
# TK-10 = system: TK-10
# OVCAR-5 = system: OVCAR-5
# A498 = system: A498
# UACC-62 = system: UACC-62
# SW-620 = system: SW-620
# BT-549 = system: BT-549
# MOLT-4 = system: MOLT-4
# T47D = system: T47D
# PC-3 = system: PC-3
# MDA-N = system: MDA-N
# MDA-MB-231 = system: MDA-MB-231
# SN12C = system: SN12C
# NCI/ADR-RES = system: NCI/ADR-RES
# NCI-H23 = system: NCI-H23
# LOX IMVI = system: LOX IMVI
# K562 = system: K562
# DU-145 = system: DU-145
# MDA-MB-435 = system: MDA-MB-435
# SF-268 = system: SF-268
# MCF7 = system: MCF7
# OVCAR-3 = system: OVCAR-3
# Hs-578T = system: Hs-578T
# Malme-3M = system: Malme-3M
# SK-MEL-2 = system: SK-MEL-2
# NCI-H522 = system: NCI-H522
# HCT-116 = system: HCT-116
# HOP-62 = system: HOP-62
# EKVX = system: EKVX
# CAKI-1 = system: CAKI-1
# SK-MEL-5 = system: SK-MEL-5
# SNB-75 = system: SNB-75
# SK-MEL-28 = system: SK-MEL-28
# OVCAR-8 = system: OVCAR-8
# HL-60 = system: HL-60
# HT-29 = system: HT-29
# A549 = system: A549
# SK-OV-3 = system: SK-OV-3
# SR = system: SR
# HOP-92 = system: HOP-92
# SNB-19 = system: SNB-19
# RXF 393 = system: RXF 393
compound,measurement,setting,value
CCN(C(=O)N[C@H](C(=O)N[C@@H](C)C(=O)OC)C(C)C)c1ccccc1,GI50,RPMI-8226,33.4 µM (inactive)
same,GI50,SF-539,19.2 µM (inactive)
same,GI50,UO-31,43.3 µM (inactive)
same,GI50,OVCAR-4,65 µM (inactive)
same,GI50,NCI-H226,> 100 µM (inactive)
same,GI50,M14,31 µM (inactive)
same,GI50,COLO 205,20 µM (inactive)
same,GI50,SF-295,70 µM (inactive)
same,GI50,HCT-15,32.4 µM
same,GI50,IGROV-1,28.1 µM (inactive)
same,GI50,HCC 2998,17.4 µM (inactive)
same,GI50,ACHN,45.2 µM (inactive)
same,GI50,NCI-H460,24 µM (inactive)
same,GI50,UACC-257,20 µM (inactive)
same,GI50,U-251,28.9 µM (inactive)
same,GI50,CCRF-CEM,56 µM (inactive)
same,GI50,786-0,27.3 µM (inactive)
same,GI50,KM12,39.6 µM (inactive)
same,GI50,TK-10,35.7 µM (inactive)
same,GI50,OVCAR-5,> 100 µM (inactive)
same,GI50,A498,46.3 µM (inactive)
same,GI50,UACC-62,22.1 µM (inactive)
same,GI50,SW-620,39.2 µM (inactive)
same,GI50,BT-549,60.4 µM (inactive)
same,GI50,MOLT-4,65.2 µM (inactive)
same,GI50,T47D,29.8 µM (inactive)
same,GI50,PC-3,39.1 µM (inactive)
same,GI50,MDA-N,34.2 µM (inactive)
same,GI50,MDA-MB-231,> 100 µM (inactive)
same,GI50,SN12C,33 µM (inactive)
same,GI50,NCI/ADR-RES,> 100 µM (inactive)
same,GI50,NCI-H23,64.3 µM (inactive)
same,GI50,LOX IMVI,> 100 µM (inactive)
same,GI50,K562,24 µM (inactive)
same,GI50,DU-145,> 100 µM (inactive)
same,GI50,MDA-MB-435,21.2 µM (inactive)
same,GI50,SF-268,> 100 µM (inactive)
same,GI50,MCF7,31 µM (inactive)
same,GI50,OVCAR-3,51.2 µM (inactive)
same,GI50,Hs-578T,32.9 µM (inactive)
same,GI50,Malme-3M,20 µM (inactive)
same,GI50,SK-MEL-2,28.8 µM (inactive)
same,GI50,NCI-H522,19 µM (inactive)
same,GI50,HCT-116,22.5 µM (inactive)
same,GI50,HOP-62,> 100 µM (inactive)
same,GI50,EKVX,> 100 µM (inactive)
same,GI50,CAKI-1,> 100 µM (inactive)
same,GI50,SK-MEL-5,36.8 µM (inactive)
same,GI50,SNB-75,32.1 µM (inactive)
same,GI50,SK-MEL-28,33.1 µM (inactive)
same,GI50,OVCAR-8,24.5 µM (inactive)
same,GI50,HL-60,23.4 µM (inactive)
same,GI50,HT-29,38.8 µM (inactive)
same,GI50,A549,> 100 µM (inactive)
same,GI50,SK-OV-3,> 100 µM (inactive)
same,GI50,SR,31.2 µM (inactive)
same,GI50,HOP-92,24 µM (inactive)
same,GI50,SNB-19,64.3 µM (inactive)
same,GI50,RXF 393,39.5 µM (inactive)
